We go through twelve molecules from patent US20140323500A1, “NADPH OXIDASE 4 INHIBITORS AND USE THEREOF” (GENKYOTEX SA, priority 2011, published 2014).

In test [1] the target is T1, human Nox4 (Homo sapiens, UniProt Q9NPH5).
T1 construct: expressed in transfected cells; host or cells: T-REx-293 (hNOX4 T-REx-293), tetracycline-induced; membrane fraction
T1 sequence (Q9NPH5 1-578): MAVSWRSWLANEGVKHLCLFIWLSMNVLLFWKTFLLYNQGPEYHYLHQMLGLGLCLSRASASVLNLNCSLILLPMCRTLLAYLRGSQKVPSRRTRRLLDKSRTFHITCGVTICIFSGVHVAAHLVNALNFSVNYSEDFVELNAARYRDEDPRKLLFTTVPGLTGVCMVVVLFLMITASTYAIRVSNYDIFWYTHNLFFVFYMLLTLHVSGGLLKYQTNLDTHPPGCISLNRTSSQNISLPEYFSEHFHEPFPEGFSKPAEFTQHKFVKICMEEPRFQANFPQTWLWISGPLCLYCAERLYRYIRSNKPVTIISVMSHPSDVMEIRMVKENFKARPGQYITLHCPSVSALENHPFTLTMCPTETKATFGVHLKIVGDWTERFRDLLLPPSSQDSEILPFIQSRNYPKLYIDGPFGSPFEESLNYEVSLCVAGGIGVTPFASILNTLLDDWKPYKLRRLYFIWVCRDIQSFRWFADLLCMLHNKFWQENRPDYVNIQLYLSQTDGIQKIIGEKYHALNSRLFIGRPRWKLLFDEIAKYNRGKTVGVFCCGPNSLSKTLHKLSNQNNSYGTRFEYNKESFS
T1 sequence (P13498 2-195 partner limits assumed): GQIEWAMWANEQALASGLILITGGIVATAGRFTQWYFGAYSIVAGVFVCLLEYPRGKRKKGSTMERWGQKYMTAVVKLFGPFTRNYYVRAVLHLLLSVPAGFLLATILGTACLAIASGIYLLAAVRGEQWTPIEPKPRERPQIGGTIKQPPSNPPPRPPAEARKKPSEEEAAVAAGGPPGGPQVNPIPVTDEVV
Nature of the test: ROS production by membranes expressing human Nox4, cell-free Amplex Red assay. Type of test: biochemical. Conditions: cell-free membranes, Amplex Red; Cheng-Prusoff; average of at least three experiments in triplicate; read-out: Ki hNox4. The text has this:
(§1) The Nox4 activity of Nox4 inhibitors according to the invention may be tested for their activity in the inhibition or reduction of formation of reactive oxygen species (ROS) from oxygen in cell free assays. In order to fully characterise Nox4 inhibitors, Nox subunit-specific cell-free, membrane-based systems have been developed and specific recombinant proteins have been added to membranes heterologously over-expressing their specific iso form. Nox enzymes produce superoxide (O2.−) as primary product, however due to the high instability and reactivity of this molecule which dismutates naturally into hydrogen peroxide (H2O2), therefore, read-out techniques involving probes that do measure H2O2 were used (e.g. using Amplex Red as a probe in order to facilitate consistent and accurate measurements). The activity of the compounds is tested in the following cell free assay using the techniques described here below:
Transfected T-REx™-CHO cells (R718-07) purchased from Invitrogen and T-REx™-293 cell line expressing hNOX4 (hNOX4 T-REx™-293) (Serrander et al., 2007, Biochem. J., 406, 105-114) were cultured in […]. Both media were supplemented with 10% FBS, 2 mM glutamine, penicillin (100 U/ml) and streptomycin (100 μg/ml). Selection pressure was maintained by continuous inclusion of blasticidin (5 μg/ml), and/or G418 (0.25 mg/ml), and/or Hygromycin (0.25 mg/ml) and/or zeocin (0.025 mg/ml).
(§2) Human Nox1, Nox2, Nox4, and Nox5 expression were induced with Tetracycline (1 μg/ml) during 24 h prior to the membrane preparation Membranes from transfected cells overexpressing Nox1, Nox2, Nox4 or Nox5 were prepared as previously described in Palicz et al., 2001, J. Biol. Chem., 76, 3090-3097. After resuspension in sonication buffer (11% sucrose, 120 mM NaCl, 1 mM EGTA in PBS, pH 7.4 for Nox4- or NOX5-expressing cells) or in relax buffer (10 mM Pipes, 3 mM NaCl, 3.5 mM MgCl2, 0.1M KCl, pH 7.4), cells were broken by sonication and centrifuged (200 g, 10 min). The supernatant was layered onto a 17/40% (w/v) discontinuous sucrose gradient and centrifuged (150,000×g for 60 min). Membrane fractions were collected from the 17/40% interface and were stored at −80° C. Protein concentration was determined with the Bradford reagent.
(§3) Reactive Oxygen Species (ROS) production by membranes expressing either human Nox1, or human Nox2 or human Nox4 or human Nox5 or by xanthine/xanthine oxidase were measured using the Amplex Red (AR) method following a slightly modified version of the manufacturer's instruction manual (Invitrogen). Briefly, membranes or xanthine were incubated in PBS with Amplex Red, Horse Radish Peroxidase (HRP) and appropriated co-factors. ROS production was induced by addition of NADPH to NOX-expressing membrane or by addition of xanthine to xanthine oxidase. Non-specific signal was measured in the absence of membranes or in the absence of xanthine.
Antagonist activity of compounds was measured in the presence of increasing concentrations ranging from 1 nM to 100 μM. After an incubation of 20 min in a plate shaker and incubator (Titramax 1000, VWR) at 37° C. with weak agitation (300 rpm), ROS levels were measured for 10 min in a BMG Fluostar microplate reader with excitation and emission wavelengths of 544 nm and 590 nm respectively.
Data were analysed using Prism (GraphPad Software Inc., San Diego, Calif.). Ki values were calculated using the Cheng-Prusoff equation and represent the average of at least three individual experiments performed in triplicate (Table 1). Nox4 inhibition was compared to that measured for Simvastatin (Enzo Life Sciences, CAS Number 79902-63-9) using the method described in Example 1. Reactive Oxygen Species (ROS) production by membranes expressing human Nox4 was measured using the Amplex Red (AR).

In test [2] the target is T2, human Nox2 (Homo sapiens, UniProt P04839).
T2 construct: host or cells: T-REx-CHO (hNOX2 T-REx-CHO), tetracycline-induced; membrane fraction
T2 sequence (P04839 2-570 limits assumed): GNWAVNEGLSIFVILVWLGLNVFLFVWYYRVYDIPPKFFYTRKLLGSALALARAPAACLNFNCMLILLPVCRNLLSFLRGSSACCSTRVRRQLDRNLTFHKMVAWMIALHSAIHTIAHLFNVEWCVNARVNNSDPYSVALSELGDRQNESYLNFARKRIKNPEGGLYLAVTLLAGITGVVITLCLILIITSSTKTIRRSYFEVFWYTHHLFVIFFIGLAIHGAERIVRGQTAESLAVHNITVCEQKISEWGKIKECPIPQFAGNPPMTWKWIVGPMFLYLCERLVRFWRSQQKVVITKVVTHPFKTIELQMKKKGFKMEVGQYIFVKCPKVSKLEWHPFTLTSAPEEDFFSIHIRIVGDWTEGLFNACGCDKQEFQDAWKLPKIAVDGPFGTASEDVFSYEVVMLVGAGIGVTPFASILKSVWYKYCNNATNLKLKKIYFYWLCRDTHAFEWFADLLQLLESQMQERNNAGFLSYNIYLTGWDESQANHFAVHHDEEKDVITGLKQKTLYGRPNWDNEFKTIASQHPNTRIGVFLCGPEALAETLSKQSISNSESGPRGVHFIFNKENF
T2 sequence (P13498 2-195 partner limits assumed): T1 sequence (P13498 2-195 partner limits assumed)
In words: ROS production by membranes expressing human Nox2, cell-free Amplex Red assay. Type of test: biochemical. Conditions: cell-free membranes, Amplex Red; Cheng-Prusoff; average of at least three experiments in triplicate; read-out: Ki hNox2.
From the text: as §1
Human Nox1 (NM_007052.4), human NOX2 (NM_000397), and human NOX5 (NM_0245052244) cDNAs were cloned into the pcDNA5/TO (Invitrogen). Human p22 (NM_000101.2) was cloned into pcDNA3.1/Zeo (+) (Invitrogen), and human NOXA1 (AY255769.1) and human NOXO1 (AB097667) were cloned into the bi-cistronic pVITRO1-neo-mcs plasmid (Invivogen).
Cells were transfected by using the FuGENE 6 method. Cells stably expressing functional human Nox1 (hNOX1 T-REx™-CHO) were obtained by co-transfecting T-REx™-CHO cells with human Nox1, human p22, human NOXA1 and human NOXO1. Cells stably expressing functional human Nox2 (hNOX2 T-REx™-CHO) were obtained by co-transfecting T-REx™-CHO cells with human nox2, human p22 and human cofactors. Cells stably expressing functional human Nox5 (hNOX5 T-REx™-CHO) were obtained by transfecting T-REx™-CHO cells with human Nox5. Co-transfected cells were selected with the appropriate antibiotics for 10 days. For the selection, hygromycin and G418 were used at 2 mg/ml and zeocin at 0.1 mg/ml. For the establishment of each stably transfected cell line, a pool of antibiotic-resistant cells was generated. Cells were cloned by limiting dilution. Several clones were established and investigated for ROS production upon tetracycline-induced hNox expression using a cellular AR assay. The expression of NOXes was done with tetracycline (1 μg/ml) during 24 h prior to the assay.
as §2, §3
Antagonist activity of compounds was measured in the presence of increasing concentrations ranging from 1 nM to 100 μM. […]

For orientation: Ki means a measure of affinity in units of concentration, obtained from inhibition or displacement. Turning to `O=c1c2c(-c3ccccc3F)n(Cc3cccnc3)c(=O)cc2[nH]n1-c1ccccc1Cl` [(17), 2-(2-chlorophenyl)-4-(2-fluorophenyl)-5-(pyridin-3-ylmethyl)-1H-pyrazolo[4,3-c]pyridine-3,6(2H,5H)-dione], the inhibitory constant (Ki) is 88 nM in test [1] and 602 nM in test [2].
The corresponding values for `O=c1c2c(-c3ccc(Cl)cc3)n(Cc3ccncc3)c(=O)cc2[nH]n1-c1ccccc1Cl` [(18), 2-(2-chlorophenyl)-4-(4-chlorophenyl)-5-(pyridin-4-ylmethyl)-1H-pyrazolo[4,3-c]pyridine-3,6(2H,5H)-dione] are 89 nM and 810 nM.
Consider `O=c1c2c(-c3ccc(Cl)cc3F)n(Cc3ccncc3)c(=O)cc2[nH]n1-c1ccccc1Cl` [(19), 4-(4-chloro-2-fluorophenyl)-2-(2-chlorophenyl)-5-(pyridin-4-ylmethyl)-1H-pyrazolo[4,3-c]pyridine-3,6(2H,5H)-dione], for which the Ki was found to be 91 nM in test [1] and 640 nM in test [2].
The corresponding values for `COc1ccc(-c2c3c(=O)n(-c4ccccc4Cl)[nH]c3cc(=O)n2Cc2cccnc2)c(F)c1` [(21), 2-(2-chlorophenyl)-4-(2-fluoro-4-methoxyphenyl)-5-(pyridin-3-ylmethyl)-1H-pyrazolo[4,3-c]pyridine-3,6(2H,5H)-dione] are 96 nM and 555 nM.
As for `COc1ccc(-c2c3c(=O)n(-c4ccccc4OC)[nH]c3cc(=O)n2Cc2ccn(C)n2)c(F)c1` [(22), 4-(2-fluoro-4-methoxyphenyl)-2-(2-methoxyphenyl)-5-[(1-methyl-1H-pyrazol-3-yl)methyl]-1H-pyrazolo[4,3-c]pyridine-3,6(2H,5H)-dione], the results for the inhibition constant Ki in test [1] and in test [2] were 98 nM and 925 nM, respectively.
The corresponding values for `O=c1c2c(-c3ccc(Cl)cc3)n(Cc3cccnc3)c(=O)cc2[nH]n1-c1ccccc1Cl` [(25), 2-(2-chlorophenyl)-4-(4-chlorophenyl)-5-(pyridin-3-ylmethyl)-1H-pyrazolo[4,3-c]pyridine-3,6(2H,5H)-dione] are 100 nM and 2180 nM.
Consider `COc1cc(Cn2c(-c3ccc(Cl)cc3F)c3c(=O)n(-c4ccccc4Cl)[nH]c3cc2=O)ccn1` [(26), 4-(4-chloro-2-fluorophenyl)-2-(2-chlorophenyl)-5-[(2-methoxypyridin-4-yl)methyl]-1H-pyrazolo[4,3-c]pyridine-3,6(2H,5H)-dione], for which the Ki in test [1] was 105 nM; in test [2], 565 nM.
The corresponding values for `COc1ccc(-c2c3c(=O)n(-c4ccccc4Cl)[nH]c3cc(=O)n2Cc2ccncc2)c(F)c1` [(27), 2-(2-chlorophenyl)-4-(2-fluoro-4-methoxyphenyl)-5-(pyridin-4-ylmethyl)-1H-pyrazolo[4,3-c]pyridine-3,6(2H,5H)-dione] are 108 nM and 590 nM.
As for `O=c1c2c(-c3ccccc3F)n(Cc3ccncc3)c(=O)cc2[nH]n1-c1ccccc1Cl` [(29), 2-(2-chlorophenyl)-4-(2-fluorophenyl)-5-(pyridin-4-ylmethyl)-1H-pyrazolo[4,3-c]pyridine-3,6(2H,5H)-dione], the results for the inhibition constant (Ki) in test [1] and in test [2] were 111 nM and 655 nM, respectively.
As to `Cc1c2c(=O)n(-c3ccccc3Cl)[nH]c2cc(=O)n1Cc1ccn(C)n1` [(30), 2-(2-chlorophenyl)-4-methyl-5-[(1-methyl-1H-pyrazol-3-yl)methyl]-1H-pyrazolo[4,3-c]pyridine-3,6(2H,5H)-dione], the inhibition constant Ki in test [1] amounted to 111 nM; in test [2], 1060 nM.
On to `CNc1cccc(-c2c3c(=O)n(-c4ccccc4Cl)[nH]c3cc(=O)n2C)c1` [(32), 2-(2-chlorophenyl)-5-methyl-4-[3-(methylamino)phenyl]-1H-pyrazolo[4,3-c]pyridine-3,6(2H,5H)-dione], for which the inhibition constant Ki in test [1] was found to be 114 nM; in test [2] it was 1830 nM.
As for `O=c1c2c(-c3ccccc3F)n(Cc3ccccn3)c(=O)cc2[nH]n1-c1ccccc1Cl` [(34), 2-(2-chlorophenyl)-4-(2-fluorophenyl)-5-(pyridin-2-ylmethyl)-1H-pyrazolo[4,3-c]pyridine-3,6(2H,5H)-dione], the inhibition constant (Ki) turned out to be 119 nM in test [1] and 640 nM in test [2].
